Test results from US20060110790A1, “Expression system for large functional proteins” (priority 2002, published 2006).

Target: T1, individually expressed N half of ABCR containing 1D4 epitope tag (N*) (Homo sapiens, UniProt P78363)
T1 construct: The cDNAs coding for the N-half (amino acids 1-1325) and C-half (amino acids 1326-2273) of ABCR; made in house; host or cells: COS-1 cells
T1 sequence (P78363 1-1325): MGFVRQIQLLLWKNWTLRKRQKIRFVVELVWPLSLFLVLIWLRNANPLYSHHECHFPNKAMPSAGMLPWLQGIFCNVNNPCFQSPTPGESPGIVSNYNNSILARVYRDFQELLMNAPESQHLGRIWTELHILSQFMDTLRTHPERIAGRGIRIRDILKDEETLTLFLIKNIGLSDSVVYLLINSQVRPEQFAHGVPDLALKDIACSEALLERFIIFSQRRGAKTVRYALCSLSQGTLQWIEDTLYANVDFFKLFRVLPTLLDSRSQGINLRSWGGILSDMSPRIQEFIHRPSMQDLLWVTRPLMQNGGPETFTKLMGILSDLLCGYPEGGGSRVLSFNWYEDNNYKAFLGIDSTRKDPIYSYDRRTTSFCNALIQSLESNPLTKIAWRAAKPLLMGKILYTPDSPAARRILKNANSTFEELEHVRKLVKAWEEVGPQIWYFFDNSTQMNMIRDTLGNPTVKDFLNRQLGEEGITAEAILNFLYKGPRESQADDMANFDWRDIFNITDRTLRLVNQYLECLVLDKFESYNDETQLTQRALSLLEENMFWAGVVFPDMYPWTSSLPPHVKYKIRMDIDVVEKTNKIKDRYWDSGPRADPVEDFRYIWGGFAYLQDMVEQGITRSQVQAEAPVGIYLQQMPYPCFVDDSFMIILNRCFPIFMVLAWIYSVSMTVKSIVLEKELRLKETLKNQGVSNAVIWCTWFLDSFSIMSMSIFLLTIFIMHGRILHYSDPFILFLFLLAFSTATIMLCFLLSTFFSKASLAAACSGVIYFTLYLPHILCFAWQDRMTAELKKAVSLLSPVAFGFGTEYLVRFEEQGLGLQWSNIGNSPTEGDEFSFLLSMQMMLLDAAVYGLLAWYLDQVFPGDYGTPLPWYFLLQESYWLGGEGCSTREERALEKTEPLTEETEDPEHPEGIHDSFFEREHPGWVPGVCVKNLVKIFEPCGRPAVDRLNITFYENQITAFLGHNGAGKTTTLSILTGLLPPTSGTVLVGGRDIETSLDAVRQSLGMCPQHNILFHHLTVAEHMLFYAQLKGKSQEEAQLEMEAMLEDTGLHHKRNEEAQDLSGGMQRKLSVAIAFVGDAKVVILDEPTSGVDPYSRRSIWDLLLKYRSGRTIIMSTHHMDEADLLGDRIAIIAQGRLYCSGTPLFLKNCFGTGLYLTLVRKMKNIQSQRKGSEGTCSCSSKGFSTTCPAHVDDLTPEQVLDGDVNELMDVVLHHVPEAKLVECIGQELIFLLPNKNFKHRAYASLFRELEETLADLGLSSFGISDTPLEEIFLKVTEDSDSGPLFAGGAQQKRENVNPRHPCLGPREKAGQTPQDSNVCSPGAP
Test: Retinal-stimulated ATPase activity of purified protein reconstituted in lipid vesicles
Type: biochemical
Conditions: individually expressed in COS-1 cells, 1D4-tagged, 50 μM [α32P]ATP
Protocol: Membranes (from two 10 cm dishes) were solubilized in 0.5 ml of 1% Triton-X100 in Buffer A (140 mM NaCl, 20 mM Tris-HCl, pH 7.4) for 20 min on ice. For ATPase assays, the membrane preparation step was omitted and the cell suspension was solubilized directly in Buffer B (10 mg/ml soybean phospholipids, 10% glycerol, 1 mM dithiothreitol, 100 mM NaCl, 3 mM MgCl2, 50 mM NaHEPES, pH 7.4) containing 18 mM CHAPS. The supernatant after a 10 min centrifugation at 40,000 rpm (TLA100.4 rotor) was mixed with 50 μl Rim3F4 Sepharose 2B for 1 h at 4° C. The beads were washed 6 times in Buffer A containing 0.2% Triton X-100 or Buffer B containing 10 mM CHAPS and eluted with 4% SDS (for electrophoresis) or 0.2 mg/ml Rim3F4 peptide (for reconstitution and determination of ATPase activity). Purified protein (24 μl) was incubated with 6 μl of 50 mg/ml lipid (1:1 mixture of dioleoylphosphatidylethanolamine and brain polar lipid, by weight) and 3 μl n-octylglucoside for 30 min on ice. The mixture was diluted rapidly with 200 μl of Buffer C (1 mM dithiothreitol, 140 mM NaCl, 25 mM NaHEPES, pH 7.4) and passed through a 200 μl Extracti-gel column (Pierce). The flow-through containing the reconstituted protein was used for determination of ATPase activity.
ATPase activity was measured as described previously (Ahn, J., Wong, J. T., and Molday, R. S. (2000) J Biol Chem 275(27), 20399-405) using 50 μM [α^32P]ATP and thin layer chromatography. The all-trans retinal concentration was determined spectrophotometrically (λ383 nm=42.88 mM^−1 cm^−1). Protein concentration was estimated from the eluate before reconstitution by laser densitometry of Coomassie blue stained gels using bovine serum albumin as a standard. […] Direct protein measurements after reconstitution by densitometry of Western blots was about half of that in the eluate. […]
ATPase Activity of Expressed N and C Halves—The basal and retinal activated ATPase activity of full-length ABCR and the N and C halves individually or co-expressed in COS-1 cells was determined after immunoaffinity purification and reconstitution into lipid vesicles. […]

stimulation of ATPase activity: not stimulated
SMILES: CC1=C(/C=C/C(C)=C/C=C/C(C)=C/C=O)C(C)(C)CCC1 [all-trans retinal]
